Data: US9745275B2, “Pain-related compound and medical composition” (KYOTO UNIVERSITY, priority 2013, dated 2017)

Columns and labels:
Type in all cases: in vivo, mouse
[1] = tested on: carrageenan-induced inflammatory pain model mice; experiment: von Frey test, mechanical allodynia in carrageenan-induced inflammatory pain model mice; settings: for threshold of withdrawal reflex behavior to mechanical stimulation (FIG. 3A, FIG. 5A): intrathecal, given 6 h after carrageenan, examined over three hours (compound 2: 0.1, 1 or 10 pmol)
Experimental: After subcutaneous plantar administration of carrageenan, acute inflammation develops over several hours, which causes a phenomenon of hypersensitivity to mechanical stimulation and thermal stimulation. A therapeutic agent containing the compound 1 as an active ingredient was administered to each of model mice of this carrageenan-induced inflammatory pain, and pain was evaluated.
More specifically, at seven hours after carrageenan was subcutaneously administered to a hind limb sole of each mouse (male, C57BL/6J, 6 to 8 weeks old), the compound 1 was administered orally, and at one hour after the administration of the compound 1, therapeutic effects thereof with respect to mechanical allodynia were determined. Specific conditions are as follows.
Mouse: C57BL/6J, male, 8 weeks old, n =4 (each foot, n=8) Induction of pain: 25 μL of physiological saline solution containing 2% of λ-carrageenan was injected subcutaneously to hind limb soles, so that pain was induced. […]
Evaluation of pain: Evaluation was performed by von Frey test. More specifically, a hind limb sole of the mouse was mechanically stimulated with tips of von-Frey filaments having a variety of thicknesses, and a load of stimulation at which the mouse initiated a withdrawal behavior was determined. […]
(§1) Before and after carrageenan (2%, 25 μl) was subcutaneously administered to a one-side hind limb sole of each mouse (male, C57BL/6J, 6 to 8 weeks old), mechanical stimulation or thermal stimulation was applied, and threshold (mechanical stimulation) and latency (thermal stimulation) of a withdrawal reflex behavior of the hind limb were measured. […]
as §1

[2] = tested on: carrageenan-induced inflammatory pain model mice; experiment: von Frey test with simultaneous administration of compound and opioid antagonist in carrageenan-induced inflammatory pain model mice; settings: intraperitoneal, compound 1 nmol/g plus opioid antagonist 20 nmol/g, 7 h after carrageenan, evaluated at 1 h and 3 h
Experimental: Carrageenan was subcutaneously injected to a hind limb sole of each mouse, and seven hours later, the compound 1 and an opioid antagonist were simultaneously administered intraperitoneally. At one hour after the administration and at three hours after the administration, therapeutic effects with respect to mechanical allodynia were evaluated. Specific conditions were as follows.
Mouse: C57B116J, male, 8 weeks old
Induction of pain: Pain was induced by subcutaneously injecting 20 μL of physiological saline solution containing 2% λ-carrageenan to a hind limb sole.
Administration of therapeutic agent: 1% Tween80 (trademark) physiological saline solution containing 2% DMSO in which the compound 1 and an opioid antagonist described below were dissolved was administered intraperitoneally, in an amount of 0.01 mL per 1 g of the body weight (about 0.2 mL of the solution was administered per one mouse). The compound 1 was prepared so as to be 1 nmol per 1 g of the body weight of the mouse. The opioid antagonist was prepared so as to be 20 nmol per 1g of the body weight of the mouse.
Opioid antagonist MNTX: Methylnaltrexone bromide Antagonist selective to a […]. Unable to pass through the blood-brain barrier.
Opioid antagonist NAL-M: Naloxone methioclide Antagonist not selective to an opioid receptor. Unable to pass through the blood-brain barrier. […]

[3] = tested on: carrageenan-induced inflammatory pain model mice; experiment: latency of withdrawal reflex to thermal stimulation (thermal hyperalgesia) in carrageenan-induced inflammatory pain model mice; settings: given 6 h after carrageenan; for suppression of thermal hyperalgesia: intrathecal, examined over three hours (compound 2: 0.1, 1 or 10 pmol)
Experimental: Before and after carrageenan (2%, 25 μl) was subcutaneously administered to a one-side hind limb sole of each mouse (male, C57BL/6J, ([…]), thermal stimulation was applied, and latency of a withdrawal reflex behavior of the hind limb was measured. The appearance of the phenomenon of thermal hyperalgesia due to carrageenan was checked over six hours after the administration, and thereafter, the compound 1 or a solvent used for dissolution (veh.) was administered orally (1 pmol or 10 pmol per 1 g of the mouse body). Effects were examined over two hours thereafter. The results are illustrated in FIG. 2.
Before and after carrageenan (2%, 25 μl) was subcutaneously administered to a one-side hind limb sole of each mouse (male, C57BL/6J, 6 to 8 weeks old), mechanical stimulation or thermal stimulation was applied, and threshold (mechanical stimulation) and latency (thermal stimulation) of a withdrawal reflex behavior of the hind limb were measured. The appearance of the phenomenon of mechanical allodynia or the appearance of thermal hyperalgesia due to carrageenan was checked over six hours after the administration, and thereafter, the compound 2 was administered intrathecally (0.1 pmol, 1 pmol, or 10 pmol). Effects were examined over three hours thereafter. The solution of the compound 2 was prepared by dissolving the compound 2 in 99% DMSO, and diluting the same with physiological saline solution (0.2% DMSO in physiological saline solution).
Before and after carrageenan (2%, 25 μl) was subcutaneously administered to a one-side hind limb sole of each mouse (male, C57BL/6J, 6 to 8 weeks old), mechanical stimulation or thermal stimulation was applied, and threshold (mechanical stimulation) and latency (thermal stimulation) of a withdrawal reflex behavior of the hind limb were measured. The appearance of the phenomenon of mechanical allodynia or the appearance of the thermal hyperalgesia due to carrageenan was checked over six hours after the administration, and thereafter, the compound 4 was administered intrathecally. Effects were examined over three hours thereafter. The solution of the compound 4 was prepared by dissolving the […] in 99% DMSO, and diluting the same with physiological saline solution (0.2% DMSO in physiological saline solution). The results are illustrated in FIG. 5.
Before and after carrageenan (2%, 25 μl) was subcutaneously administered to a one-side hind limb sole of each mouse (male, C57BL/6J, 6 to 8 weeks old), thermal stimulation was applied, and latency of a withdrawal reflex behavior of the hind limb was measured. The appearance of the phenomenon of thermal hyperalgesia due to carrageenan was checked over six hours after the administration, and thereafter, the compound 5 was administered intrathecally. Effects were examined over three hours thereafter. The solution of the compound 5 was prepared by dissolving the compound 5 in 99% DMSO, and diluting the same with physiological saline solution (0.2% DMSO in physiological saline solution). The results are illustrated in FIG. 6.
Before and after carrageenan (2%, 25 μl) was subcutaneously administered to a one-side hind limb sole of each mouse (male, C57BL/6J, 6 to 8 weeks old), thermal stimulation was applied, and latency of a withdrawal reflex behavior of the hind limb was measured. […]

[4] = tested on: complete Freund's adjuvant-induced inflammatory pain model mice; experiment: threshold of withdrawal reflex to mechanical stimulation in complete Freund's adjuvant-induced inflammatory pain model mice; settings: intrathecal, three days after CFA, examined over three hours
Experimental: Subcutaneous plantar administration of complete Freund's adjuvant (CFA) caused prolonged inflammation, which was more persistent than the inflammation caused in the carrageenan models, and this caused phenomena of hypersensitivity to mechanical stimulation and thermal stimulation. Using these CFA model mice, pain therapy effects of the compound 3 were evaluated. Before and after CFA (25 μl) was subcutaneously administered to a one-side hind limb sole of each mouse (male, C57BL/6J, 6 to 8 weeks old), mechanical stimulation was applied, and threshold of a withdrawal reflex behavior of the hind limb was measured. The appearance of the phenomenon of mechanical allodynia due to CFA was checked three days after the administration, and the compound 3 was administered intrathecally. Effects were examined over three hours thereafter. The solution of the compound 3 was prepared by dissolving the compound 3 in 99% DMSO, and diluting the same with physiological saline solution (0.2% DMSO in physiological saline solution). The results are illustrated in FIG. 4.

Structure (SMILES)	threshold of withdrawal reflex behavior to mechanical stimulation (FIG. 3A, FIG. 5A) [1]	suppression of thermal hyperalgesia [3]	further results
CCN1/C(=C/C(C)=O)Sc2ccc(F)cc21 [compound 1, (1Z)-1-(3-ethyl-5-fluoro-2(3H)-benzothiazolylidene)-2-propanone]			therapeutic effect on mechanical allodynia (threshold load of withdrawal behavior, von Frey filaments), FIG. 1 ([1]; oral, 1 nmol per 1 g body weight, 7 h after carrageenan, evaluated 1 h after administration, C57BL/6J male mice): significantly reduced; analgesic action on mechanical allodynia with simultaneous opioid antagonist (MNTX or NAL-M), FIG. 8 [2]: hindered by a peripheral opioid antagonist; therapeutic effect on thermal hyperalgesia (latency of withdrawal reflex to thermal stimulation), FIG. 2 ([3]; oral, 1 pmol or 10 pmol per 1 g of mouse body, examined over two hours): significantly reduced
CCN1/C(=C/C(C)=O)Sc2ccc(OC)cc21 [compound 2]	significantly reduced	significantly reduced	
CCN1/C(=C/C(C)=O)Sc2cc(OC)ccc21 [compound 3, (1Z)-1-(3-ethyl-6-methoxy-2(3H)-benzothiazoylidene)-2-propanone]			threshold of withdrawal reflex behavior to mechanical stimulation, FIG. 4 [4]: significantly suppressed
CCN1/C(=C/C(C)=O)Sc2c(OC)cccc21 [compound 4]	significantly suppressed	significantly suppressed	
CCN1/C(=C/C(C)=O)Sc2ccc(Br)cc21 [compound 5, (1Z)-1-(5-bromo-3-ethyl-2(3H)-benzothiazoylidene)-2-propanone]		significantly suppressed	
CCN1/C(=C/C(C)=O)Sc2ccc(Cl)cc21 [compound 6, (1Z)-1-(5-chloro-3-ethyl-2(3H)-benzothiazoylidene)propan-2-one]		significantly suppressed	
